Data: patent publication US11883505B2, “Anticancer drug-containing plant virus particles” (CASE WESTERN RESERVE UNIVERSITY, priority 2015, dated 2024)

Tests used:
MDA-MB-231 xenografts = assay: Treatment of MDA-MB-231 xenografts in NCR nu/nu mice; format: in vivo, mouse; conditions: 1.0 mg/kg (normalized to platinum or TMV content), weekly intravenous bolus
Description: FIGS. 7A-C show treatment of MDA-MB-231 xenografts in an athymic mouse model. […] Tumor volumes were monitored daily, and total volume was normalized to initial tumor size at time of treatment. Each treatment group consists of 5 animals (n=5); *indicates p<0.05.
All animal studies were carried using IACUC-approved procedures. […] The dosage was normalized to platinum or TMV content.

[1] = test system: A2780/CP70 (ovarian cancer resistant to cisplatin); assay: MTT assay, ovarian cancer cells resistant to cisplatin; format: cell-based, human; conditions: ovarian cancer cells resistant to cisplatin treatment
Description: (§1) The assay was performed as per manufacturer's recommendation; a BioTek Synergy HT multidetection microplate reader was used for read-out.

[2] = test system: OV81.2 (ovarian cancer, primary patient cells); assay: MTT assay, primary patient ovarian cancer cells; format: cell-based, human; conditions: primary patient cells OV81.2
Description: as §1

N.N.[Cl][Pt][Cl] [cisplatin]
tumor growth / treatment effect (MDA-MB-231 xenografts): ineffective

phenanthriplatin
tumor growth / treatment effect (MDA-MB-231 xenografts): ineffective
efficacy versus cisplatin [1]: enhanced efficacy
efficacy versus cisplatin [2]: Enhanced efficacy
